Laboratory results taken from patent US20240417410A1, “TRICYCLIC COMPOUNDS FOR THE TREATMENT OF CANCER” (Hoffmann-La Roche Inc., priority 2023, published 2024).

Tests used:
[1] = system: AGS cells (KRAS G12D); experiment: Cell viability assay (Cell Counting Kit-8, 3-day); format: cell-based, human; conditions: Homo sapiens, 72 h, 72 hrs incubation
Method in brief: (§1)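 After overnight attachment, cells received compounds (0.5% DMSO) for 72 hrs; viability was then quantified with CCK-8, reading OD450 minus OD650, and IC50 values were obtained from a 4-parameter concentration-response fit.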

[2] = system: NCI-H358 cells (KRAS G12C); experiment: Cell viability assay (Cell Counting Kit-8, 3-day); format: cell-based, human; conditions: Homo sapiens, NCI-H358, 72 h, NCI-H358, 72 hrs incubation
Method in brief: as §1

[3] = system: SW620 cells (KRAS G12V); experiment: Cell viability assay (Cell Counting Kit-8, 3-day); format: cell-based, human; conditions: Homo sapiens, SW-620; SW620, 72 hrs incubation
Method in brief: as §1

[4] = target: KRAS G12C-BRAF complex (Homo sapiens (Human), UniProt P01116+P62937, G12C); experiment: KRAS-BRAF with CYPA (500 nM) interaction assay (TR-FRET, Example 136); format: biochemical; conditions: KRAS G12C-BRAF disruption
[5] = system: phosphorylation of ERK, KRAS G12C in NCI-H358 cells; experiment: pERK inhibition assay; format: cell-based; conditions: Homo sapiens, NCI-H358, 4 h
Method in brief: (§2)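 Cells in RPMI-1640 with 10% FBS were plated overnight (30,000/well H358, 20,000 AGS, 30,000 SW620) and treated 4 h with compounds at 0.5% DMSO. After formaldehyde fixation and methanol permeabilization, pERK was detected by in-cell ELISA with HRP secondary and TMB (OD450); IC50 from 4-parameter fit.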

[6] = system: phosphorylation of ERK, KRAS G12D in AGS cells; experiment: pERK inhibition assay; format: cell-based; conditions: Homo sapiens, AGS, 4 h
Method in brief: as §2

[7] = system: phosphorylation of ERK, KRAS G12V in SW620; experiment: pERK inhibition assay; format: cell-based; conditions: Homo sapiens, SW-620, 4 h, SW620 cells
Method in brief: as §2

Chain of KRAS G12C-BRAF complex (P01116-2 other isoform, or with tags, fused parts or gaps G12C): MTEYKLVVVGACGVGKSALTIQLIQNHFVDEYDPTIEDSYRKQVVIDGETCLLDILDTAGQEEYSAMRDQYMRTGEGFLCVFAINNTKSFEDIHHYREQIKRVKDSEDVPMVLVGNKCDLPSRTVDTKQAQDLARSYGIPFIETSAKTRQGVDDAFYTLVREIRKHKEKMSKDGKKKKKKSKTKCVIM
Chain of KRAS G12C-BRAF complex (P62937 whole entry): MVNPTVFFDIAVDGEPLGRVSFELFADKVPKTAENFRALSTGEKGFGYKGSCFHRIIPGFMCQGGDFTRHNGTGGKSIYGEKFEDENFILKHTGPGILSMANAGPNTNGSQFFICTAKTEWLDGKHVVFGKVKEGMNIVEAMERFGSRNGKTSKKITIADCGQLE

Row | SMILES | IC50 [1] | IC50 [2] | IC50 [3] | IC50 [4] | IC50 [5] | IC50 [6] | IC50 [7]
1 | CO[C@@H](C)c1ncc(N2CCN(C3CC3)CC2)cc1-c1c2c3cc(cc4c3n1CCO4)-c1csc(n1)C[C@H](NC(=O)[C@H]1[C@H](C)[C@@H]1C)C(=O)N1CCC[C@H](N1)C(=O)OCC(C)(C)C2 (atropisomer, axis not shown; (M)) [Example 106, (1r,2R,3S)-N-[(7S,13S)-(20M)-20-[5-(4-cyclopropylpiperazin-1-yl)-2-[(1S)-1-methoxyethyl]-3-pyridyl]-17,17-dimethyl-8,14-dioxo-15,24-dioxa-4-thia-9,21,30,31-tetrazahexacyclo[23.3.1.1^2,5.1^9,13.0^19,27.0^21,26]hentriaconta-1 (28),2,5 (31),19,25 (29),26-hexaen-7-yl]-2,3-dimethyl-cyclopropanecarboxamide] | 8.7 nM | 4.4 nM | 0.4 nM | 10.8 nM | 1.1 nM | 3.1 nM | 0.4 nM
2 | CO[C@@H](C)c1ncc(N2CCOCC2)cc1-c1c2c3cc(cc4c3n1C[C@@H](O)C4)-c1csc(n1)C[C@H](NC(=O)[C@H]1[C@H](C)[C@@H]1C)C(=O)N1CCC[C@H](N1)C(=O)OCC(C)(C)C2 (atropisomer, axis not shown; (M)) [Example 107, (1r,2R,3S)-N-[(7S,13S,23S)-23-hydroxy-(20M)-20-[2-[(1S)-1-methoxyethyl]-5-morpholino-3-pyridyl]-17,17-dimethyl-8,14-dioxo-15-oxa-4-thia-9,21,30,31-tetrazahexacyclo[23.3.1.1^2,5.1^9,13.0^19,27.0^21,26]hentriaconta-1 (28),2,5 (31),19,25 (29),26-hexaen-7-yl]-2,3-dimethyl-cyclopropanecarboxamide] | 5.4 nM | 8.4 nM | 1.2 nM | 47.6 nM | 2.7 nM | 7.4 nM | 1.5 nM
3 | CO[C@@H](C)c1ncc(N2CCNCC2)cc1-c1c2c3cc(cc4c3n1CCC4)-c1csc(n1)C[C@H](NC(=O)[C@H]1[C@H](C)[C@@H]1C)C(=O)N1CCC[C@H](N1)C(=O)OCC(C)(C)C2 (atropisomer, axis not shown; (M)) [Example 108, (1r,2R,3S)-N-[(7S,13S)-(20M)-20-[2-[(1S)-1-methoxyethyl]-5-piperazin-1-yl-3-pyridyl]-17,17-dimethyl-8,14-dioxo-15-oxa-4-thia-9,21,30,31-tetrazahexacyclo[23.3.1.1^2,5.1^9,13.0^19,27.0^21,26]hentriaconta-1 (28),2,5 (31), 19,25 (29),26-hexaen-7-yl]-2,3-dimethyl-cyclopropanecarboxamide] | 1.8 nM | 2.2 nM | 0.5 nM | 4.6 nM | 1.8 nM | 3.9 nM | 0.5 nM
4 | CO[C@@H](C)c1ncc(N2CCN(CCF)CC2)cc1-c1c2c3cc(cc4c3n1CCC4)-c1csc(n1)C[C@H](NC(=O)[C@H]1[C@H](C)[C@@H]1C)C(=O)N1CCC[C@H](N1)C(=O)OCC(C)(C)C2 (atropisomer, axis not shown; (M)) [Example 110, (1r,2R,3S)-N-[(7S,13S)-(20M)-20-[5-[4-(2-fluoroethyl)piperazin-1-yl]-2-[(1S)-1-methoxyethyl]-3-pyridyl]-17,17-dimethyl-8,14-dioxo-15-oxa-4-thia-9,21,30,31-tetrazahexacyclo[23.3.1.1^2,5.1^9,13.0^19,27.0^21,26]hentriaconta-1 (28),2,5 (31), 19,25 (29),26-hexaen-7-yl]-2,3-dimethyl-cyclopropanecarboxamide] | 2.6 nM | 1.8 nM | 0.4 nM | 4.9 nM | 0.7 nM | 2.6 nM | 0.3 nM
5 | CO[C@@H](C)c1ncc(N2CCN(CCCO)CC2)cc1-c1c2c3cc(cc4c3n1CCC4)-c1csc(n1)C[C@H](NC(=O)[C@H]1[C@H](C)[C@@H]1C)C(=O)N1CCC[C@H](N1)C(=O)OCC(C)(C)C2 (atropisomer, axis not shown; (M)) [Example 111, (1r,2R,3S)-N-[(7S,13S)-(20M)-20-[5-[4-(3-hydroxypropyl)piperazin-1-yl]-2-[(1S)-1-methoxyethyl]-3-pyridyl]-17,17-dimethyl-8,14-dioxo-15-oxa-4-thia-9,21,30,31-tetrazahexacyclo[23.3.1.1^2,5.1^9,13.0^19,27.0^21,26]hentriaconta-1 (28),2,5 (31), 19,25 (29),26-hexaen-7-yl]-2,3-dimethyl-cyclopropanecarboxamide] | 0.8 nM | 1 nM | 0.2 nM | 4.7 nM | 0.6 nM | 2 nM | 0.4 nM
6 | CO[C@@H](C)c1ncc(N2CCN(C)CC2)cc1-c1c2c3cc(cc4c3n1CCC4)-c1csc(n1)C[C@H](NC(=O)[C@@H]1C[C@H]1c1cncnc1C)C(=O)N1CCC[C@H](N1)C(=O)OCC(C)(C)C2 (atropisomer, axis not shown; (M)) [Example 112, (1R,2R)-N-[(7S,13S)-(20M)-20-[2-[(1S)-1-methoxyethyl]-5-(4-methylpiperazin-1-yl)-3-pyridyl]-17,17-dimethyl-8,14-dioxo-15-oxa-4-thia-9,21,30,31-tetrazahexacyclo[23.3.1.1^2,5.1^9,13.0^19,27.0^21,26]hentriaconta-1 (28),2,5 (31), 19,25 (29),26-hexaen-7-yl]-2-(4-methylpyrimidin-5-yl)cyclopropanecarboxamide] | 3.4 nM | 2.2 nM | 0.8 nM | 10.4 nM | 0.7 nM | 3.4 nM | 0.5 nM
7 | CCN1CCN(c2cnc([C@H](C)OC)c(-c3c4c5cc(cc6c5n3CCC6)-c3csc(n3)C[C@H](NC(=O)[C@H]3[C@H](C)[C@@H]3C)C(=O)N3CCC[C@H](N3)C(=O)OCC(C)(C)C4)c2)CC1 (atropisomer, axis not shown; (M)) [Example 113, (1r,2R,3S)-N-[(7S,13S)-(20M)-20-[5-(4-ethylpiperazin-1-yl)-2-[(1S)-1-methoxyethyl]-3-pyridyl]-17,17-dimethyl-8,14-dioxo-15-oxa-4-thia-9,21,30,31-tetrazahexacyclo[23.3.1.1^2,5.1^9,13.0^19,27.0^21,26]hentriaconta-1 (28),2,5 (31), 19,25 (29),26-hexaen-7-yl]-2,3-dimethyl-cyclopropanecarboxamide] | 1.5 nM | 2.1 nM | 0.3 nM | 4.3 nM | 0.6 nM | 2.2 nM | 0.4 nM
8 | CO[C@@H](C)c1ncc(N2CCN(C)CC2)cc1-c1c2c3cc(cc4c3n1CCC4)-c1csc(n1)C[C@H](NC(=O)[C@@H]1C[C@H]1c1cscn1)C(=O)N1CCC[C@H](N1)C(=O)OCC(C)(C)C2 (atropisomer, axis not shown; (M)) [Example 114, (1R,2R)-N-[(7S,13S)-(20M)-20-[2-[(1S)-1-methoxyethyl]-5-(4-methylpiperazin-1-yl)-3-pyridyl]-17,17-dimethyl-8,14-dioxo-15-oxa-4-thia-9,21,30,31-tetrazahexacyclo[23.3.1.1^2,5.1^9,13.0^19,27.0^21,26]hentriaconta-1 (28),2,5 (31), 19,25 (29),26-hexaen-7-yl]-2-thiazol-4-yl-cyclopropanecarboxamide] | 5.1 nM | 4.5 nM | 1.3 nM | 8.9 nM | 1.2 nM | 7.5 nM | 1 nM
9 | COCCN1CCN(c2cnc([C@H](C)OC)c(-c3c4c5cc(cc6c5n3CCC6)-c3csc(n3)C[C@H](NC(=O)[C@H]3[C@H](C)[C@@H]3C)C(=O)N3CCC[C@H](N3)C(=O)OCC(C)(C)C4)c2)CC1 (atropisomer, axis not shown; (M)) [Example 115, (1r,2S,3R)-N-[(7S,13S)-(20M)-20-[2-[(1S)-1-methoxyethyl]-5-[4-(2-methoxyethyl)piperazin-1-yl]-3-pyridyl]-17,17-dimethyl-8,14-dioxo-15-oxa-4-thia-9,21,30,31-tetrazahexacyclo[23.3.1.1^2,5.1^9,13.0^19,27.0^21,26]hentriaconta-1 (28),2,5 (31), 19,25 (29),26-hexaen-7-yl]-2,3-dimethyl-cyclopropanecarboxamide] | 3.4 nM | 1.7 nM | 0.4 nM | 18.5 nM | 0.8 nM | 2.6 nM | 0.2 nM
10 | CO[C@@H](C)c1ncc(N2CCN(C)CC2)cc1-c1c2c3cc(cc4c3n1CCC4)-c1csc(n1)C[C@H](NC(=O)[C@@H]1C[C@H]1c1cccnc1C)C(=O)N1CCC[C@H](N1)C(=O)OCC(C)(C)C2 (atropisomer, axis not shown; (M)) [Example 116, (1R,2R)-N-[(7S,13S)-(20M)-20-[2-[(1S)-1-methoxyethyl]-5-(4-methylpiperazin-1-yl)-3-pyridyl]-17,17-dimethyl-8,14-dioxo-15-oxa-4-thia-9,21,30,31-tetrazahexacyclo[23.3.1.1^2,5.1^9,13.0^19,27.0^21,26]hentriaconta-1 (28),2,5 (31), 19,25 (29),26-hexaen-7-yl]-2-(2-methyl-3-pyridyl)cyclopropanecarboxamide] | 3.5 nM | 1.4 nM | 0.5 nM | 20.6 nM | 0.8 nM | 4.6 nM | 0.7 nM
